Source: patent US8648058B2, “Diazeniumdiolate cyclopentyl derivatives” (Merck Sharp & Dohme Corp., priority 2010, dated 2014)

Tested on: Male beagle dogs
Test: canine telemetry protocol for blood pressure reduction efficacy
Assay type: in vivo
Conditions: 3 mg/kg dose, oral gavage, telemetered male beagle dogs; for ΔPP (mm Hg) 1-6 h / ΔPP (mm Hg) 6-12 h / ΔPP (mm Hg) 12-18 h: change from baseline in pulse pressure; for ΔSBP (mm Hg) 1-6 h / ΔSBP (mm Hg) 6-12 h / ΔSBP (mm Hg) 12-18 h: change from baseline in systolic blood pressure
Protocol: Compounds of the invention were evaluated for blood pressure reduction efficacy using the following canine telemetry protocol described below.
Male beagle dogs (approximately 1-3 years old) with a body weight of between 10 and 16 kg were surgically implanted with DSI radiotelemetry devices (model: TL11M2-D70-PCT). Briefly, under an inhalant anesthesia, isoflurane/oxygen mixture (1-3.5%/to effect), the body of the telemetry device was positioned and secured intra-abdominally. Subsequently, the arterial catheter of the telemetry device was passed subcutaneously to the inguinal area and introduced into the femoral artery and advanced to the level of the descending aorta. The catheter was secured with 2-0 silk ligatures. The muscle and underlying fascia was closed over the catheter using absorbable suture and the skin was closed using non-absorbable suture. The animals were allowed a minimum recovery period of 2 weeks between surgery and the evaluation of test compounds.
Compound evaluation consisted of a 3 day paradigm at a 3 mg/kg dose. On the first day, no compounds were administered during a 24 hour period of baseline data collection. Blood pressure and heart rate data were collected continuously for one minute periods at 10 minute intervals. On the days of compound administration half the animals received test article with the other half receiving the vehicle used for compound formulation. All test materials were administered by oral gavage in a volume of 1 mL/kg. Data are expressed either as raw values (mm Hg or beats per minute) or as the change from baseline (average value for about 12 hours in low activity period prior to dosing). Change is SBP (systolic blood pressure) and PP (pulse pressure) over time is shown below: […]

SMILES | ΔPP (mm Hg) 1-6 h [mm Hg] | ΔPP (mm Hg) 6-12 h [mm Hg] | ΔPP (mm Hg) 12-18 h [mm Hg] | ΔSBP (mm Hg) 1-6 h [mm Hg] | ΔSBP (mm Hg) 6-12 h [mm Hg] | ΔSBP (mm Hg) 12-18 h [mm Hg]
CCN(/[N+]([O-])=N/O[C@@H]1CC[C@H](C(=O)O)C1)C(C)(C)C [Example 18, (1S,3R)-3-({[(1Z)-2-tert-butyl-2-ethyl-1-oxido-1λ^5-diazan-1-ylidene]amino}oxy)cyclopentanecarboxylic acid] | −14 | −10 | −6 | −18 | −10 | −4
CCN(/[N+]([O-])=N/O[C@@H]1CC[C@@H](C(=O)O)C1)C(C)(C)C [Example 1, (1R,3R)-3-({[(1Z)-2-tert-butyl-2-ethyl-1-oxido-1λ^5-diazan-1-ylidene]amino}oxy)cyclopentanecarboxylic acid] | −7 | −7 | −5 | −12 | −9 | −7
CCCN(/[N+]([O-])=N/O[C@@H]1CC[C@@H](C(=O)O)C1)C(C)(C)C [Example 7, (1R,3R)-3-({[(1Z)-2-tert-butyl-2-propyl-1-oxido-1λ^5-diazan-1-ylidene]amino}oxy)cyclopentanecarboxylic acid] | −4 | −9 | −8 | −9 | −11 | −10
